Where a name gives a salt, the structure may show the parent alone. Read-outs that look alike come from different tables or passages of the source.
Experiments:
[1] = system: POS1 osteosarcoma cell line; test: viability/cytotoxicity test on osteosarcoma line POS1; assay type: cell-based; settings: mouse osteosarcoma cell line
Method: (§1) The biological activities (viability/cytotoxicity test) of the molecules (III) and (IV) were tested in vitro on cultures of human, murine and rat osteosarcoma lines in comparison with normal cells (healthy osteoblasts from mouse calvaria).

[2] = system: OSRGA osteosarcoma cell line; test: viability/cytotoxicity test on osteosarcoma line OSRGA; assay type: cell-based; settings: rat osteosarcoma cell line
Method: as §1

[3] = system: MG63 osteosarcoma cell line; test: viability/cytotoxicity test on osteosarcoma line MG63; assay type: cell-based; settings: MG-63; human osteosarcoma cell line
Method: as §1

murine fibroblast L929 = test: cells; assay type: cell-based; settings: Mus musculus, L929, 72 h
POS-1 mouse osteosarcoma [4] = test: cells; assay type: cell-based; settings: 72 h
different cell lines = test: in vitro cytotoxicity of the fluorescent molecule; assay type: cell-based
mice = test: administration of the fluorescent molecule in mice; settings: mouse, in vivo
[5] = system: Mouse osteosarcoma POS1 cells; test: in vivo osteolytic primitive bone tumor model, POS1 tumor fragments transplanted into para-osteal site; settings: treated versus untreated (control) mice; FIG. 3
Method: Mouse osteosarcoma POS1 cells were injected in the pad of a 5-week old male mouse of the C3H/HeN strain. Fragments of the tumor which develops on this site are then transplanted into a para-osteal site in order to induce development of an osteolytic primitive bone tumor. The molecule (IV) was then injected as a cure of […] injections (IP) of 11.5 or 115 μmol/kg at 24 hr intervals from the 7th day (D7) after tumoral induction.

mice (Swiss strain) = test: in vivo bone tropism test in young mice, 4 weeks of treatment; settings: 0.35 μmol/kg sub-cutaneously twice a week; for specific bone volume BV/TV, left femur / specific bone volume BV/TV, average of left and right femur / specific bone volume BV/TV, right femur: 4 weeks; for specific bone volume BV/TV, left femur: control 56.58%; for specific bone volume BV/TV, average of left and right femur: control 62.89%; for specific bone volume BV/TV, right femur: control 69.20%
POS-1 mouse osteosarcoma [6] = settings: in vivo

## CN(CCCOc1cccc(COP(N)(=O)N(CCCl)CCCl)c1)CCC(O)(P(=O)(O)O)P(=O)(O)O (centres unmarked) [Molecule (III), 3-((3-(3-((amino(bis(2-chloroethyl)amino)phosphoryloxy)methyl)phenoxy)propyl)(methyl)amino)-1-hydroxypropane-1,1-diyl-diphosphonic acid]
[1]
  IC50: > 200 µM
[2]
  IC50: > 200 µM
[3]
  IC50: > 200 µM

## CN(CCCOc1cccc(COP(N)(=O)N(CCCl)CCCl)c1)CCC(=O)OC(C)(C)C (centres unmarked) [Molecule 3]
Murine fibroblast L929; read-out: IC50 L929 (DMSO)
  IC50: 500 µM
Murine fibroblast L929; read-out: IC50 L929 (ethanol)
  IC50: > 500 µM
POS-1 mouse osteosarcoma [4]; read-out: IC50 POS-1 (DMSO)
  IC50: 280 µM
POS-1 mouse osteosarcoma [4]; read-out: IC50 POS-1 (ethanol)
  IC50: 500 µM

## CN(CCCOc1cccc(CN(C)S(=O)(=O)c2cccc3c(N(C)C)cccc23)c1)CCC(O)(P(=O)(O)O)P(=O)(O)O [Molecule (II), 3-((3-(3-((5-dimethylamino)-N-methylnaphthalene-1-sulfonamido)methyl)phenoxy)propyl(methyl)amino)-1-hydropropane-1,1-diyldiphosphonic acid]
Different cell lines
  cytotoxic activity in vitro: did not have any cytotoxic activity
mice
  cytotoxic activity after administration in mice: did not either reveal any cytotoxic activity

## CN(CCCOc1cccc(COCCOP(N)(=O)N(CCCl)CCCl)c1)CCC(O)(P(=O)(O)O)P(=O)(O)O (centres unmarked) [Molecule (IV), {3-[(3-{3-[6-amino-9-chloro-7-(2-chloroethyl)-6-oxido-2,5-dioxa-7-aza-6-phosphanon-1-yl]phenoxy}propyl)(methyl)amino]-1-hydroxypropane-1,1-diyl}biphosphonic acid]
[1]
  IC50: > 500 µM
[2]
  IC50: > 500 µM
[3]
  IC50: > 500 µM
[5]
  bone mineral density in the epiphyseal area (radiographs): increase in the bone mineral density

## CN(CCCOc1ccccc1)CCC(O)(P(=O)(O)O)P(=O)(O)O [Molecule 4]
Mice (Swiss strain)
  specific bone volume BV/TV, left femur: 73.69%
  specific bone volume BV/TV, average of left and right femur: 73.88%
  specific bone volume BV/TV, right femur: 74.08%
Mice (Swiss strain); after 4 weeks, versus control mice, FIG. 2
  mineral density on radiographs: increase in the mineral density

## NP(=O)(OCc1cccc(OCCCBr)c1)N(CCCl)CCCl (centres unmarked) [Molecule 2]
Murine fibroblast L929; read-out: IC50 L929 (DMSO)
  IC50: > 500 µM
Murine fibroblast L929; read-out: IC50 L929 (ethanol)
  IC50: 250 µM
POS-1 mouse osteosarcoma [4]; read-out: IC50 POS-1 (DMSO)
  IC50: 200 µM
POS-1 mouse osteosarcoma [4]; read-out: IC50 POS-1 (ethanol)
  IC50: 300 µM
POS-1 mouse osteosarcoma [6]
  survival rate: significant increase

## O=P(O)(O)C(O)(Cn1ccnc1)P(=O)(O)O [Disodium salt of zoledronic acid, zoledronic acid, reference compound]
Mice (Swiss strain)
  specific bone volume BV/TV, left femur: 72.72%
  specific bone volume BV/TV, average of left and right femur: 74.02%
  specific bone volume BV/TV, right femur: 75.33%
Mice (Swiss strain); after 4 weeks
  weight follow-up and general condition of the mice: no incidence on the weight follow-up, nor on the general condition
